Data: US20080233187A1, “Method of Production of Fine-Crystalline Mixture Containing Non-Steroid Anti-Inflammatory Drug, Fine-Crystalline Mixture Obtainable by this Method and Solid Pharmaceutical Composition Containing this Mixture” (priority 2005, published 2008)

Experiments:
[1] = release rate of the active ingredient from capsules and tablets (European Pharmacopoeia, chapter 2.9.3.); type: physicochemical; conditions: tablets of recipe C2 composition with fine-crystalline mixture of the drug and microcrystalline cellulose, direct pressing (FIG. 5 and 6)
Protocol: The release rate of the active ingredient from the capsules prepared by the process described above, and for comparison also from the tablets, was tested by the method of the European Pharmacopoeia for testing solid pharmaceutical forms (chapter 2.9.3.). The medium used was phosphate buffer having pH 7.2.

[2] = most commonly represented sizes of crystals (photographs of the crystals); type: physicochemical
Text: The auxiliary substance in the fine-crystalline mixtures was Avicel®.

[3] = racemic mixture administered to a human; cited from earlier work

CN1C(C(=O)Nc2ccccn2)=C(O)c2ccccc2S1(=O)=O [piroxicam, 4-hydroxy-2-methyl-3-[(2-pyridyl)aminocarbonyl]-2H-1,2-benzothiazin-1,1-dioxide]
release of the active ingredient from the tablet [1]: very fast release

CC(C)Cc1ccc([C@H](C)C(=O)O)cc1 [coarse-crystalline S(+)-ibuprofen, S(+)-2-(4-isobutylphenyl)-propionic acid]
lengthwise size of the stick-form crystals ([2]; starting material (photograph FIG. 7)): about 200 micrometers
length of crystals ([2]; starting material, no solvent): 250 μm
width of crystals ([2]; starting material, no solvent): 65 μm

CC(C)Cc1ccc([C@@H](C)C(=O)O)cc1 [R(−)-ibuprofen, R(−)-2-(4-isobutylphenyl)-propionic acid]
conversion of R(−)-enantiomer to the S(+) form [3]: 50 to 60%

CS(=O)(=O)Nc1ccc([N+](=O)[O-])cc1Oc1ccccc1 [nimesulide, N-(4-nitro-2-phenoxyphenyl)-methanesulphonamide]
release of the active ingredient from the tablet [1]: very fast release
